# Literature values in patent US9309233B2, “Compositions and methods for the treatment of blood clotting disorders” (CELLIX BIO PRIVATE LIMITED, priority 2012, dated 2016).
time at which plasma levels peak (plasma levels of dabigatran after drug administration (dabigatran etexilate)),oral bioavailability (oral),SMILES
≈ 2 hours,–,[H]/N=C(/N)c1ccc(NCc2nc3cc(C(=O)N(CCC(=O)O)c4ccccn4)ccc3n2C)cc1 [dabigatran]
–,≈ 6%,CCCCCCOC(=O)NC(=N)c1ccc(NCc2nc3cc(C(=O)N(CCC(=O)OCC)c4ccccn4)ccc3n2C)cc1 [Dabigatran etexilate]
